In PubChem BioAssay (NCI):
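Step 1: Grow cells in 96-well plates. Step 2: Expose to compound for 48 hours at 5 concentrations. Step 3: Interpolate endpoints linearly; if unreached, use highest concentration. Here, GI50 denotes the concentration required for 50% inhibition of growth. Definition used: TGI = concentration required for complete inhibition of growth.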

Legend:
Experiment in all cases: inhibition of tumour cell growth, NCI panel, 48 h
A549 NSCLC = test system: A549 NSCLC
KM12 colon = test system: KM12 colon
HOP-92 NSCLC = test system: HOP-92 NSCLC
RPMI-8226 leukemia = test system: RPMI-8226 leukemia
HOP-62 NSCLC = test system: HOP-62 NSCLC
SNB-75 CNS = test system: SNB-75 CNS
DU-145 prostate = test system: DU-145 prostate
SN12C renal = test system: SN12C renal
SF-539 CNS = test system: SF-539 CNS
SK-OV-3 ovarian = test system: SK-OV-3 ovarian
HCC-2998 colon = test system: HCC-2998 colon
MCF7 breast = test system: MCF7 breast
U251 CNS = test system: U251 CNS
NCI-H226 lung = test system: NCI-H226 lung
HS 578T breast = test system: HS 578T breast
OVCAR-5 ovarian = test system: OVCAR-5 ovarian
EKVX NSCLC = test system: EKVX NSCLC
786-0 renal = test system: 786-0 renal
OVCAR-4 ovarian = test system: OVCAR-4 ovarian
SW-620 colon = test system: SW-620 colon
MALME-3M melanoma = test system: MALME-3M melanoma
MOLT-4 leukemia = test system: MOLT-4 leukemia
K-562 leukemia = test system: K-562 leukemia
HCT-15 colon = test system: HCT-15 colon
IGROV1 ovarian = test system: IGROV1 ovarian
HT29 colon = test system: HT29 colon
NCI-H23 lung = test system: NCI-H23 lung
UACC-62 melanoma = test system: UACC-62 melanoma
SF-268 CNS = test system: SF-268 CNS
BT-549 breast = test system: BT-549 breast
NCI/ADR-RES ovarian = test system: NCI/ADR-RES ovarian
PC-3 prostate = test system: PC-3 prostate
NCI-H522 lung = test system: NCI-H522 lung
SK-MEL-5 melanoma = test system: SK-MEL-5 melanoma
HCT-116 colon = test system: HCT-116 colon
NCI-H460 lung = test system: NCI-H460 lung
COLO 205 colon = test system: COLO 205 colon
ACHN renal = test system: ACHN renal
CAKI-1 renal = test system: CAKI-1 renal
LOX IMVI melanoma = test system: LOX IMVI melanoma
UO-31 renal = test system: UO-31 renal
SNB-19 CNS = test system: SNB-19 CNS
M14 melanoma = test system: M14 melanoma
TK-10 renal = test system: TK-10 renal
UACC-257 melanoma = test system: UACC-257 melanoma
A498 renal = test system: A498 renal
RXF 393 renal = test system: RXF 393 renal
CCRF-CEM leukemia = test system: CCRF-CEM leukemia
SF-295 CNS = test system: SF-295 CNS
MDA-MB-435 = test system: MDA-MB-435

Question: For N#Cc1c(NC(=O)c2ccc(F)c(Cl)c2)sc2c1CCC(=O)C2, which GI50 (A549 NSCLC) is on record?
Answer: 2.64 µM

Question: What about the TGI (A549 NSCLC) of the same compound?
Answer: > 29.2 µM

Question: What about the GI50 (KM12 colon) of the same compound?
Answer: 0.419 µM

Question: What about the TGI (KM12 colon) of the same compound?
Answer: 1.93 µM

Question: And the GI50 (HOP-92 NSCLC)?
Answer: 0.231 µM

Question: What about the TGI (HOP-92 NSCLC) of the same compound?
Answer: 0.724 µM

Question: And the GI50 (RPMI-8226 leukemia)?
Answer: 0.155 µM

Question: And the TGI (RPMI-8226 leukemia)?
Answer: 0.684 µM

Question: What about the GI50 (HOP-62 NSCLC) of the same compound?
Answer: 2.51 µM

Question: What about the TGI (HOP-62 NSCLC) of the same compound?
Answer: > 28.3 µM

Question: What about the GI50 (SNB-75 CNS) of the same compound?
Answer: 1.42 µM

Question: And the TGI (SNB-75 CNS)?
Answer: 4.21 µM

Question: And the GI50 (DU-145 prostate)?
Answer: 4.04 µM

Question: What about the TGI (DU-145 prostate) of the same compound?
Answer: > 100 µM

Question: What about the GI50 (SN12C renal) of the same compound?
Answer: 0.351 µM

Question: What about the TGI (SN12C renal) of the same compound?
Answer: 1.56 µM

Question: And the GI50 (SF-539 CNS)?
Answer: 0.312 µM

Question: What about the TGI (SF-539 CNS) of the same compound?
Answer: 1.15 µM

Question: What about the GI50 (SK-OV-3 ovarian) of the same compound?
Answer: 1.47 µM

Question: And the TGI (SK-OV-3 ovarian)?
Answer: 3.03 µM

Question: What about the GI50 (HCC-2998 colon) of the same compound?
Answer: 1.32 µM

Question: What about the TGI (HCC-2998 colon) of the same compound?
Answer: 3.33 µM

Question: And the GI50 (MCF7 breast)?
Answer: 0.337 µM

Question: What about the TGI (MCF7 breast) of the same compound?
Answer: 15 µM

Question: What about the GI50 (U251 CNS) of the same compound?
Answer: 0.353 µM

Question: And the TGI (U251 CNS)?
Answer: 1.36 µM

Question: And the GI50 (NCI-H226 lung)?
Answer: 2.04 µM

Question: What about the TGI (NCI-H226 lung) of the same compound?
Answer: 6.25 µM

Question: What about the GI50 (HS 578T breast) of the same compound?
Answer: 0.523 µM

Question: And the TGI (HS 578T breast)?
Answer: 3.76 µM

Question: What about the GI50 (OVCAR-5 ovarian) of the same compound?
Answer: 0.728 µM

Question: What about the TGI (OVCAR-5 ovarian) of the same compound?
Answer: 3.02 µM

Question: What about the GI50 (EKVX NSCLC) of the same compound?
Answer: 1.06 µM

Question: What about the TGI (EKVX NSCLC) of the same compound?
Answer: 4.8 µM

Question: What about the GI50 (786-0 renal) of the same compound?
Answer: 0.389 µM

Question: And the TGI (786-0 renal)?
Answer: 5.78 µM

Question: What about the GI50 (OVCAR-4 ovarian) of the same compound?
Answer: 0.578 µM

Question: And the TGI (OVCAR-4 ovarian)?
Answer: 2 µM

Question: What about the GI50 (SW-620 colon) of the same compound?
Answer: 0.406 µM

Question: And the TGI (SW-620 colon)?
Answer: 1.87 µM

Question: And the GI50 (MALME-3M melanoma)?
Answer: 0.485 µM

Question: And the TGI (MALME-3M melanoma)?
Answer: 1.69 µM

Question: And the GI50 (MOLT-4 leukemia)?
Answer: 0.332 µM

Question: What about the TGI (MOLT-4 leukemia) of the same compound?
Answer: > 26 µM

Question: And the GI50 (K-562 leukemia)?
Answer: 0.301 µM

Question: And the TGI (K-562 leukemia)?
Answer: > 100 µM

Question: What about the GI50 (HCT-15 colon) of the same compound?
Answer: 0.368 µM

Question: And the TGI (HCT-15 colon)?
Answer: 2.06 µM

Question: And the GI50 (IGROV1 ovarian)?
Answer: 0.592 µM

Question: And the TGI (IGROV1 ovarian)?
Answer: 2.38 µM

Question: What about the GI50 (HT29 colon) of the same compound?
Answer: 0.347 µM

Question: And the TGI (HT29 colon)?
Answer: 1.31 µM

Question: What about the GI50 (NCI-H23 lung) of the same compound?
Answer: 0.371 µM

Question: What about the TGI (NCI-H23 lung) of the same compound?
Answer: 2.08 µM

Question: And the GI50 (UACC-62 melanoma)?
Answer: 0.426 µM

Question: And the TGI (UACC-62 melanoma)?
Answer: 1.94 µM

Question: And the GI50 (SF-268 CNS)?
Answer: 0.89 µM

Question: What about the TGI (SF-268 CNS) of the same compound?
Answer: 6.36 µM

Question: What about the GI50 (BT-549 breast) of the same compound?
Answer: 0.223 µM

Question: What about the TGI (BT-549 breast) of the same compound?
Answer: 0.696 µM

Question: And the GI50 (NCI/ADR-RES ovarian)?
Answer: 0.449 µM

Question: And the TGI (NCI/ADR-RES ovarian)?
Answer: > 100 µM

Question: And the GI50 (PC-3 prostate)?
Answer: 0.237 µM

Question: What about the TGI (PC-3 prostate) of the same compound?
Answer: 1.35 µM

Question: And the GI50 (NCI-H522 lung)?
Answer: 0.2 µM

Question: What about the TGI (NCI-H522 lung) of the same compound?
Answer: 0.671 µM

Question: And the GI50 (SK-MEL-5 melanoma)?
Answer: 1.23 µM

Question: What about the TGI (SK-MEL-5 melanoma) of the same compound?
Answer: 2.59 µM

Question: What about the GI50 (HCT-116 colon) of the same compound?
Answer: 0.233 µM

Question: What about the TGI (HCT-116 colon) of the same compound?
Answer: 1.11 µM

Question: What about the GI50 (NCI-H460 lung) of the same compound?
Answer: 1.94 µM

Question: And the TGI (NCI-H460 lung)?
Answer: > 33.3 µM

Question: And the GI50 (COLO 205 colon)?
Answer: 0.423 µM

Question: And the TGI (COLO 205 colon)?
Answer: 1.38 µM

Question: And the GI50 (ACHN renal)?
Answer: 0.349 µM

Question: What about the TGI (ACHN renal) of the same compound?
Answer: 1.08 µM

Question: What about the GI50 (CAKI-1 renal) of the same compound?
Answer: 0.302 µM

Question: What about the TGI (CAKI-1 renal) of the same compound?
Answer: 1.13 µM

Question: What about the GI50 (LOX IMVI melanoma) of the same compound?
Answer: 0.404 µM

Question: And the TGI (LOX IMVI melanoma)?
Answer: 4.44 µM

Question: What about the GI50 (UO-31 renal) of the same compound?
Answer: 0.298 µM

Question: What about the TGI (UO-31 renal) of the same compound?
Answer: 1.17 µM

Question: What about the GI50 (SNB-19 CNS) of the same compound?
Answer: 0.672 µM

Question: What about the TGI (SNB-19 CNS) of the same compound?
Answer: 10.4 µM

Question: What about the GI50 (M14 melanoma) of the same compound?
Answer: 0.365 µM

Question: And the TGI (M14 melanoma)?
Answer: 1.75 µM

Question: And the GI50 (TK-10 renal)?
Answer: 0.44 µM

Question: What about the TGI (TK-10 renal) of the same compound?
Answer: 2.02 µM

Question: And the GI50 (UACC-257 melanoma)?
Answer: 1.52 µM

Question: And the TGI (UACC-257 melanoma)?
Answer: 4.26 µM

Question: What about the GI50 (A498 renal) of the same compound?
Answer: 2.4 µM

Question: And the TGI (A498 renal)?
Answer: 6.44 µM

Question: And the GI50 (RXF 393 renal)?
Answer: 0.353 µM

Question: What about the TGI (RXF 393 renal) of the same compound?
Answer: 1.3 µM

Question: What about the GI50 (CCRF-CEM leukemia) of the same compound?
Answer: 0.216 µM

Question: What about the TGI (CCRF-CEM leukemia) of the same compound?
Answer: > 24.4 µM

Question: What about the GI50 (SF-295 CNS) of the same compound?
Answer: 1.12 µM

Question: And the TGI (SF-295 CNS)?
Answer: 3.89 µM

Question: What about the GI50 (MDA-MB-435) of the same compound?
Answer: 0.436 µM

Question: What about the TGI (MDA-MB-435) of the same compound?
Answer: 2.4 µM
